In patent US20240123079A1 (Seagen Inc., priority 2021, published 2024):

Experiment: In vivo cytokine assay, plasma of Renca tumor-bearing mice
Parameters: species or system mouse; IFNg production in plasma / IL-1b production in plasma / IL-6 production in plasma / IL12p70 production in plasma / IP10 production in plasma / MIP1a production in plasma / MIP1b production in plasma / TNFa production in plasma: unit not given here
Experimental: Cytokines were measured in mouse plasma harvested at 3, 6, 24, or 48 hours after treatment with compounds or ADCs using a Milliplex MAP mouse cytokine/chemokine magnetic bead panel assay kit (MCYTOMAG-70k custom 11-plex kit: MCP1, MIP1α, MIP1β, TNFα, IFNγ, IL-10, IL-12p70, IL-6, IL-1β, IP10, RANTES) and analyzed using a Luminex™ MAGPIX™ Instrument System. Values that were outside of the standard curve range (<3.2 or […]) were excluded from calculation of the mean values.

SMILES: CCn1nc(C)cc1C(=O)Nc1nc2cc(C(N)=O)cc(OC)c2n1C/C=C/Cn1c(NC(=O)c2cc(C)nn2CC)nc2cc(C(N)=O)cc(OCCCNC)c21 [Compound 12a]
- MCP-1 production in plasma (0.6 mg/kg, dose #1, 24 h): 141.5
- MIP1a production in plasma (0.6 mg/kg, dose #1, 24 h): <3.2
- MIP1b production in plasma (0.6 mg/kg, dose #1, 24 h): <3.2
- RANTES production in plasma (0.6 mg/kg, dose #1, 24 h): 46.2
- TNFa production in plasma (0.6 mg/kg, dose #1, 24 h): 5.2
- IFNg production in plasma (0.6 mg/kg, dose #1, 48 h): <3.2
- IL12p70 production in plasma (0.6 mg/kg, dose #1, 48 h): <3.2
- IL-1b production in plasma (0.6 mg/kg, dose #1, 48 h): 5.7
- IL-6 production in plasma (0.6 mg/kg, dose #1, 48 h): 1.8
- IL-10 production in plasma (0.6 mg/kg, dose #1, 48 h): <3.2
- IP10 production in plasma (0.6 mg/kg, dose #1, 48 h): 218.4
- MCP-1 production in plasma (0.6 mg/kg, dose #1, 48 h): 40.0
- MIP1a production in plasma (0.6 mg/kg, dose #1, 48 h): 10.3
- MIP1b production in plasma (0.6 mg/kg, dose #1, 48 h): <3.2
- RANTES production in plasma (0.6 mg/kg, dose #1, 48 h): 5.0
- TNFa production in plasma (0.6 mg/kg, dose #1, 48 h): <3.2
- IFNg production in plasma (0.6 mg/kg, dose #2, 6 h): 41.5
- IL12p70 production in plasma (0.6 mg/kg, dose #2, 6 h): 28.4
- IL-1b production in plasma (0.6 mg/kg, dose #2, 6 h): 5.8
- IL-6 production in plasma (0.6 mg/kg, dose #2, 6 h): 516.9
- IL-10 production in plasma (0.6 mg/kg, dose #2, 6 h): <3.2
- IP10 production in plasma (0.6 mg/kg, dose #2, 6 h): 3996.6
- MCP-1 production in plasma (0.6 mg/kg, dose #2, 6 h): 9761.2
- MIP1a production in plasma (0.6 mg/kg, dose #2, 6 h): 115.5
- MIP1b production in plasma (0.6 mg/kg, dose #2, 6 h): 837.6
- RANTES production in plasma (0.6 mg/kg, dose #2, 6 h): 621.6
- TNFa production in plasma (0.6 mg/kg, dose #2, 6 h): 16.7
- IFNg production in plasma (1.8 mg/kg, dose #1, 3 h): <3.2
- IL12p70 production in plasma (1.8 mg/kg, dose #1, 3 h): 3.1
- IL-1b production in plasma (1.8 mg/kg, dose #1, 3 h): 7.5
- IL-6 production in plasma (1.8 mg/kg, dose #1, 3 h): 4314.6
- IL-10 production in plasma (1.8 mg/kg, dose #1, 3 h): 27.3
- IP10 production in plasma (1.8 mg/kg, dose #1, 3 h): 8222.7
- MCP-1 production in plasma (1.8 mg/kg, dose #1, 3 h): 5805.3
- MIP1a production in plasma (1.8 mg/kg, dose #1, 3 h): 1052.6
- MIP1b production in plasma (1.8 mg/kg, dose #1, 3 h): 7438.6
- RANTES production in plasma (1.8 mg/kg, dose #1, 3 h): 51.2
- TNFa production in plasma (1.8 mg/kg, dose #1, 3 h): 46.4
- IFNg production in plasma (1.8 mg/kg, dose #1, 6 h): 36.4
- IL12p70 production in plasma (1.8 mg/kg, dose #1, 6 h): <3.2
- IL-1b production in plasma (1.8 mg/kg, dose #1, 6 h): 0.7
- IL-6 production in plasma (1.8 mg/kg, dose #1, 6 h): 543.0
- IL-10 production in plasma (1.8 mg/kg, dose #1, 6 h): 9.9
- IP10 production in plasma (1.8 mg/kg, dose #1, 6 h): 7589.2
- MCP-1 production in plasma (1.8 mg/kg, dose #1, 6 h): 13861.5
- MIP1a production in plasma (1.8 mg/kg, dose #1, 6 h): 172.2
- MIP1b production in plasma (1.8 mg/kg, dose #1, 6 h): 1162.7
- RANTES production in plasma (1.8 mg/kg, dose #1, 6 h): 526.2
- TNFa production in plasma (1.8 mg/kg, dose #1, 6 h): 21.2
- IFNg production in plasma (1.8 mg/kg, dose #1, 24 h): <3.2
- IL12p70 production in plasma (1.8 mg/kg, dose #1, 24 h): <3.2
- IL-1b production in plasma (1.8 mg/kg, dose #1, 24 h): 3.2
- IL-6 production in plasma (1.8 mg/kg, dose #1, 24 h): 6.8
- IL-10 production in plasma (1.8 mg/kg, dose #1, 24 h): <3.2
- IP10 production in plasma (1.8 mg/kg, dose #1, 24 h): 595.6
- MCP-1 production in plasma (1.8 mg/kg, dose #1, 24 h): 143.9
- MIP1a production in plasma (1.8 mg/kg, dose #1, 24 h): 10.3
- MIP1b production in plasma (1.8 mg/kg, dose #1, 24 h): <3.2
- RANTES production in plasma (1.8 mg/kg, dose #1, 24 h): 48.8
- TNFa production in plasma (1.8 mg/kg, dose #1, 24 h): 3.2
- IFNg production in plasma (1.8 mg/kg, dose #1, 48 h): <3.2
- IL12p70 production in plasma (1.8 mg/kg, dose #1, 48 h): <3.2
- IL-1b production in plasma (1.8 mg/kg, dose #1, 48 h): 3.2
- IL-6 production in plasma (1.8 mg/kg, dose #1, 48 h): 1.5
- IL-10 production in plasma (1.8 mg/kg, dose #1, 48 h): <3.2
- IP10 production in plasma (1.8 mg/kg, dose #1, 48 h): 223.5
- MCP-1 production in plasma (1.8 mg/kg, dose #1, 48 h): 2.0
- MIP1a production in plasma (1.8 mg/kg, dose #1, 48 h): <3.2
- MIP1b production in plasma (1.8 mg/kg, dose #1, 48 h): <3.2
- RANTES production in plasma (1.8 mg/kg, dose #1, 48 h): <3.2
- TNFa production in plasma (1.8 mg/kg, dose #1, 48 h): 3.2
- IFNg production in plasma (1.8 mg/kg, dose #2, 6 h): 80.4
- IL12p70 production in plasma (1.8 mg/kg, dose #2, 6 h): 28.4
- IL-1b production in plasma (1.8 mg/kg, dose #2, 6 h): 4.6
- IL-6 production in plasma (1.8 mg/kg, dose #2, 6 h): 1681.6
- IL-10 production in plasma (1.8 mg/kg, dose #2, 6 h): 7.7
- IP10 production in plasma (1.8 mg/kg, dose #2, 6 h): 4151.5
- MCP-1 production in plasma (1.8 mg/kg, dose #2, 6 h): 17185.9
- MIP1a production in plasma (1.8 mg/kg, dose #2, 6 h): 209.9
- MIP1b production in plasma (1.8 mg/kg, dose #2, 6 h): 1407.7
- RANTES production in plasma (1.8 mg/kg, dose #2, 6 h): 892.1
- TNFa production in plasma (1.8 mg/kg, dose #2, 6 h): 46.4
- systemic pro-inflammatory cytokine (IL-6 and TNF) production (plasma of tumor-bearing mice): induced robust production of IL-6 and TNF
